Patent US20240425464A1, “Substituted Monohydrazides as Potent Antifungal Agents” (University of Kentucky Research Foundation, priority 2023, published 2024)
Converted amounts (≈) assume the structure as drawn. Read-outs that look alike come from different tables or passages of the source.

Legend:
Format in all cases: cell-based, Candida albicans
[1] = test system: C. albicans ATCC 10231 (strain A); assay: MIC determination by in vitro antifungal assay (CLSI broth dilution); settings: strain A = C. albicans ATCC 10231, no visible growth, 48 h at 35° C.
Procedure, shortened: (§1)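 Broth microdilution following CLSI M27-A3/M38-A2 with modifications, in RPMI 1640 buffered to pH 7.0 with 0.165 M MOPS. Yeast inoculum adjusted to OD600 0.12 and diluted 1:100. Compounds tested at 0.06–31.3 μg/mL by double dilution; incubation 48 h at 35° C.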

[2] = test system: C. albicans ATCC 90819 (D); assay: MIC determination by in vitro antifungal assay
Procedure, shortened: as §1

[3] = test system: C. albicans ATCC MYA-1237 (F); assay: MIC determination by in vitro antifungal assay; settings: strain F = C. albicans ATCC MYA-1237(R)
Procedure, shortened: as §1

[4] = test system: C. albicans ATCC 64124 (B); assay: MIC determination by in vitro antifungal assay
Procedure, shortened: as §1

[5] = test system: C. albicans ATCC MYA-2876 (C); assay: MIC determination by in vitro antifungal assay; settings: strain C = C. albicans ATCC MYA-2876(S)
Procedure, shortened: as §1

[6] = test system: C. albicans ATCC MYA-2310 (E); assay: MIC determination by in vitro antifungal assay; settings: strain E = C. albicans ATCC MYA-2310
Procedure, shortened: as §1

[7] = test system: C. albicans ATCC MYA-1003 (G); assay: MIC determination by in vitro antifungal assay; settings: strain G = C. albicans ATCC MYA-1063(R) (footnote), MYA-1003 in text
Procedure, shortened: as §1

[8] = Candida albicans, ATCC10231, 48 h, read-out: MIC
[9] = Candida albicans, ATCC90819, strain D = C. albicans ATCC 90819(R), read-out: MIC
[10] = Candida albicans, read-out: MIC
[11] = Candida albicans, ATCC64124, strain B = C. albicans ATCC 64124, read-out: MIC
[12] = strain D = C. albicans ATCC 90819(R)
[13] = strain B = C. albicans ATCC 64124

SMILES	MIC [1, 8] [µg/mL]	MIC [2, 9] [µg/mL]	MIC [3, 10] [µg/mL]	MIC [4, 11] [µg/mL]	MIC [5, 10] [µg/mL]	MIC [6, 10] [µg/mL]	MIC [7, 10] [µg/mL]	MIC [1] [μg/mL^−1]	MIC [2, 12] [μg/mL^−1]	MIC [3] [μg/mL^−1]	MIC [4, 13] [μg/mL^−1]	MIC [5] [μg/mL^−1]	MIC [6] [μg/mL^−1]	MIC [7] [μg/mL^−1]
O=C(NNc1ccc(F)cc1)c1cccc(F)n1 [Compound 5d]	0.24 (≈ 0.963 µM)	1.95 (≈ 7.82 µM)	1.95 (≈ 7.82 µM)	0.98 (≈ 3.93 µM)	1.95 (≈ 7.82 µM)	3.9 (≈ 15.6 µM)	0.98 (≈ 3.93 µM)	–	–	–	–	–	–	–
O=C(NNc1ccc(Cl)cc1)c1cccc(F)n1 [Compound 5e]	–	–	–	–	–	–	–	1.95	3.9	0.98	1.95	1.95	1.95	0.98
COc1ccc(NNC(=O)c2cccc(F)n2)cc1 [Compound 5f]	0.24 (≈ 0.919 µM)	1.95 (≈ 7.46 µM)	0.98 (≈ 3.75 µM)	1.95 (≈ 7.46 µM)	0.98 (≈ 3.75 µM)	0.98 (≈ 3.75 µM)	0.98 (≈ 3.75 µM)	–	–	–	–	–	–	–
O=C(NNc1ccc(F)cc1F)c1cccc(F)n1 [Compound 5g]	0.98 (≈ 3.67 µM)	3.9 (≈ 14.6 µM)	1.95 (≈ 7.3 µM)	1.95 (≈ 7.3 µM)	1.95 (≈ 7.3 µM)	1.95 (≈ 7.3 µM)	0.98 (≈ 3.67 µM)	–	–	–	–	–	–	–
O=C(NNc1cccc(F)c1)c1cccc(Br)n1 [Compound 6a]	–	–	–	–	–	–	–	0.49	7.8	3.9	1.95	1.95	3.9	3.9
O=C(NNc1ccc(F)cc1)c1cccc(Br)n1 [Compound 6d]	0.98 (≈ 3.16 µM)	3.9 (≈ 12.6 µM)	3.9 (≈ 12.6 µM)	1.95 (≈ 6.29 µM)	3.9 (≈ 12.6 µM)	3.9 (≈ 12.6 µM)	1.95 (≈ 6.29 µM)	–	–	–	–	–	–	–
COc1ccc(NNC(=O)c2cccc(Br)n2)cc1 [Compound 6f]	1.95 (≈ 6.05 µM)	3.9 (≈ 12.1 µM)	0.98 (≈ 3.04 µM)	3.9 (≈ 12.1 µM)	1.95 (≈ 6.05 µM)	3.9 (≈ 12.1 µM)	3.9 (≈ 12.1 µM)	–	–	–	–	–	–	–
O=C(NNc1cccc(F)c1)c1ncc(F)cc1F [Compound 7a]	–	–	–	–	–	–	–	0.24	3.9	3.9	0.98	1.95	1.95	1.95
COc1cccc(NNC(=O)c2ncc(F)cc2F)c1 [Compound 7c]	0.98 (≈ 3.51 µM)	7.8 (≈ 27.9 µM)	3.9 (≈ 14 µM)	1.95 (≈ 6.98 µM)	3.9 (≈ 14 µM)	3.9 (≈ 14 µM)	1.95 (≈ 6.98 µM)	–	–	–	–	–	–	–
O=C(NNc1ccc(F)cc1)c1ncc(F)cc1F [Compound 7d]	0.98 (≈ 3.67 µM)	1.95 (≈ 7.3 µM)	1.95 (≈ 7.3 µM)	1.95 (≈ 7.3 µM)	1.95 (≈ 7.3 µM)	3.9 (≈ 14.6 µM)	0.98 (≈ 3.67 µM)	–	–	–	–	–	–	–
O=C(NNc1ccc(Cl)cc1)c1ncc(F)cc1F [Compound 7e]	–	–	–	–	–	–	–	3.9	7.8	0.49	3.9	3.9	1.95	1.95
COc1ccc(NNC(=O)c2ncc(F)cc2F)cc1 [Compound 7f]	1.95 (≈ 6.98 µM)	1.95 (≈ 6.98 µM)	0.98 (≈ 3.51 µM)	1.95 (≈ 6.98 µM)	1.95 (≈ 6.98 µM)	1.95 (≈ 6.98 µM)	0.98 (≈ 3.51 µM)	–	–	–	–	–	–	–
O=C(NNc1ccc(F)cc1F)c1ncc(F)cc1F [Compound 7g]	0.98 (≈ 3.44 µM)	3.9 (≈ 13.7 µM)	3.9 (≈ 13.7 µM)	3.9 (≈ 13.7 µM)	3.9 (≈ 13.7 µM)	3.9 (≈ 13.7 µM)	1.95 (≈ 6.84 µM)	–	–	–	–	–	–	–
O=C(NNc1cccc(F)c1)c1nc(F)ccc1F [Compound 8a]	–	–	–	–	–	–	–	0.98	3.9	1.95	0.98	1.95	1.95	0.98
COc1cccc(NNC(=O)c2nc(F)ccc2F)c1 [Compound 8c]	0.98 (≈ 3.51 µM)	7.8 (≈ 27.9 µM)	1.95 (≈ 6.98 µM)	1.95 (≈ 6.98 µM)	3.9 (≈ 14 µM)	3.9 (≈ 14 µM)	1.95 (≈ 6.98 µM)	–	–	–	–	–	–	–
O=C(NNc1ccc(F)cc1)c1nc(F)ccc1F [Compound 8d]	0.24 (≈ 0.898 µM)	0.98 (≈ 3.67 µM)	0.98 (≈ 3.67 µM)	0.98 (≈ 3.67 µM)	0.98 (≈ 3.67 µM)	0.98 (≈ 3.67 µM)	0.49 (≈ 1.83 µM)	–	–	–	–	–	–	–
O=C(NNc1ccc(Cl)cc1)c1nc(F)ccc1F [Compound 8e]	–	–	–	–	–	–	–	3.9	7.8	>31.3	7.8	3.9	3.9	3.9
COc1ccc(NNC(=O)c2nc(F)ccc2F)cc1 [Compound 8f]	1.95 (≈ 6.98 µM)	1.95 (≈ 6.98 µM)	0.98 (≈ 3.51 µM)	1.95 (≈ 6.98 µM)	1.95 (≈ 6.98 µM)	1.95 (≈ 6.98 µM)	0.98 (≈ 3.51 µM)	–	–	–	–	–	–	–
O=C(NNc1ccc(F)cc1F)c1nc(F)ccc1F [Compound 8g]	0.98 (≈ 3.44 µM)	3.9 (≈ 13.7 µM)	1.95 (≈ 6.84 µM)	1.95 (≈ 6.84 µM)	1.95 (≈ 6.84 µM)	1.95 (≈ 6.84 µM)	0.98 (≈ 3.44 µM)	–	–	–	–	–	–	–
O=C(NNc1cccc(F)c1)c1cnccn1 [Compound 9a]	–	–	–	–	–	–	–	0.24	0.98	0.98	1.95	3.9	7.8	0.98
O=C(NNc1cccc(Cl)c1)c1cnccn1 [Compound 9b]	0.24 (≈ 0.965 µM)	3.9 (≈ 15.7 µM)	0.98 (≈ 3.94 µM)	1.95 (≈ 7.84 µM)	1.95 (≈ 7.84 µM)	7.8 (≈ 31.4 µM)	0.98 (≈ 3.94 µM)	–	–	–	–	–	–	–
